The values that follow come from patent publication US20240132449A1, “HETEROCYCLIC COMPOUNDS AND METHODS OF USE THEREOF” (1cBio, Inc., priority 2022, published 2024).

Where a name gives a salt, the structure may show the parent alone.

Test [1] concerns the target T1, PARP1 (Homo sapiens, UniProt P09874). Description: PARP1 fluorescence polarization binding assay. As to conditions: binding IC50, GST-tagged PARP1 20 nM, PARPi-FL 3 nM. As for the experimental part:
Compounds of the present disclosure were tested in a PARP1 fluorescence polarization binding assay at Pharmaron (Beijing, P.R.China). In this biochemical assay, binding of test compound to recombinant human PARP1 reduces the amount of binding of a fluorescent probe, and consequently reduces the detected level of fluorescence polarization. Test compound stock solutions were prepared in DMSO and then serially diluted into 10 concentrations by 3-fold dilution in a 384-well plate using a TECAN EVO200. 60 nL of each dilution was transferred to the plate using an Echo550 (Labcyte), and then 10 μL 40 nM GST-tagged PARP1 (BPS Bioscience, Cat #80501), diluted in assay buffer (50 mM Tris pH 8.0, 0.001% Triton X-100, 10 mM MgCl2, 150 mM NaCl), was added to the plate. After a centrifugation at 1000 rpm for 1 min, the assay plate was incubated for 30 min at RT. 10 μL 6 nM PARPi-FL (TOCRIS, Cat #6461), diluted using assay buffer, was then added to the plate. The final concentrations of PARP1 and PARPi-FL were 20 nM and 3 nM, respectively, in a total volume of 20 μL. After a centrifugation at 1000 rpm for 1 min, the assay plate was incubated for 4 h at RT. Samples in each well were read using an Envision instrument (Perkin-Elmer; Ex=480 nm Em=FITC FP-P pol 535 nm & FITC FP-S pol 535 nm). Percent inhibition was calculated from mP values using Inhibition (%)=[1−(mPc−mPL)/(mPH−mPL)]×100%, where mPc, mPL, and mPH are the mP values of test compound, Low controls, and High controls, respectively. Binding IC50 values were calculated using XLFit (equation 201: y=A+((B−A)/(1+((x/C)^D))), where A=bottom, B=top, C=IC50, and D=slope) with a floating top and bottom for curves. Binding IC50 values are shown in Table A and are presented in ranges, in which “+++”<100 nM, 100 nM≤“++”<3000 nM, and “+”≥3000 nM.

The target of another test is recombinant human PARP2 (Homo sapiens, UniProt Q9UGN5). Description: PARP2 fluorescence polarization binding assay. As to conditions: for IC50: binding IC50, GST-tagged PARP2 20 nM, PARPi-FL 3 nM; for inhibition at 10 µM: read-out: PARP2 % inh at 10 μM. How it is done:
Compounds of the present disclosure were tested in a PARP2 fluorescence polarization binding assay at Pharmaron (Beijing, P.R. China). In this biochemical assay, binding of test compound to recombinant human PARP2 reduces the amount of binding of a fluorescent probe, and consequently reduces the detected level of fluorescence polarization. Test compound stock solutions were prepared in DMSO and then serially diluted into 10 concentrations by 3-fold dilution in a 384-well plate using a TECAN EVO200. Alternatively, a single concentration was prepared. 60 nL of each dilution was transferred to the plate using an Echo550 (Labcyte), and then 10 μL 40 nM GST-tagged PARP2 (BPS Bioscience, Cat #80502), diluted in assay buffer (50 mM Tris pH 8.0, 0.001% Triton X-100, 10 mM MgCl2, 150 mM NaCl), was added to the plate. After a centrifugation at 1000 rpm for 1 min, the assay plate was incubated for 30 min at RT. 10 μL 6 nM PARPi-FL (TOCRIS, Cat #6461), diluted using assay buffer, was then added to the plate. […] After a centrifugation at 1000 rpm for 1 min, the assay plate was incubated for 4 h at RT. Samples in each well were read using an Envision instrument (Perkin-Elmer; Ex=480 nm Em=FITC FP-P pol 535 nm & FITC FP-S pol 535 nm). […] Binding IC50 values were calculated using XLFit (equation 201: […])^D))), where A=bottom, B=top, C=IC50, and D=slope) with a floating top and bottom for curves.

The subject of test [2] is DLD-1 BRCA2(−/−) colorectal adenocarcinoma cells. Description: Cell viability assay (Cell Titer-Glo), DLD-1 BRCA2(−/−). The settings on record: Homo sapiens, DLD-1, 168 h; 7 days incubation, 200 cells/well. The format is cell-based. As for the experimental part:
(§1) Compounds of the present disclosure were tested for their effects on the viability of cancer cells. DLD-1 wild-type and DLD-1 BRCA2(−/−) colorectal adenocarcinoma cells, an isogenic pair of cell lines differing in the presence and absence, respectively, of both BRCA2 alleles, were used. The cells were harvested during the logarithmic growth period, counted, and seeded at 50 cells/well for DLD-1 wild-type and 200 cells/well for DLD-1 BRCA2(−/−) in a 384-well cell culture plate. After seeding, cells were incubated at 37° C., 5% CO2 overnight. Cells were treated with serially diluted test compounds at 10 concentrations (e.g., from 1.5 nM-30 μM) for generation of dose response curves, or at a single concentration. The plate was further incubated for another 7 days in a humidified incubator at 37° C. and 5% CO2. Cell viability was assessed by luminescence measurement after addition of Cell Titer-Glo reagent (Promega, Madison, Wis.) according to the manufacturer's instructions. Cell viability IC50 values were calculated using XLFit, equation 201: y=A+((B−A)/(1+((x/C)^D))), where A=bottom, B=top, C=IC50, and D=slope. IC50 values are shown in Table B and are presented in ranges, in which “+++”<300 nM, 300 nM≤“++”<3000 nM, and “+”≥3000 nM. Values for percent inhibition at 10 μM are also shown in Table B and are presented in ranges, in which “***”≥67%, 33%≤“**”<67%, and “*”<33%. Effects of the test compounds on the viability of other cell lines such as MDA-MB-436, MDA-MB-231, SUM149PT, HCC1395, and UWB1.289 are determined in an analogous method.
A general note: ATP-based viability assays read luminescence as a measure of living cells.

Test [3] has as its system DLD-1 wild-type colorectal adenocarcinoma cells. Kind of test: Cell viability assay (Cell Titer-Glo), DLD-1 wild-type. It is filed as cell-based. As to conditions: Homo sapiens, DLD-1, 168 h, 7 days incubation; for inhibition at 10 µM: read-out: DLD-1 wild-type % inh at 10 μM; for IC50: 50 cells/well. How it is done:
as §1

Test [4] has as its target T1, PARP1. Description: PARP1 biochemical trapping assay (BPS PARPtrap). How it is done:
Compounds of the present disclosure were tested in a PARP1 biochemical trapping assay at BPS Bioscience (San Diego, CA). PARP1 is known to bind damaged DNA through its DNA-binding domains. Binding to DNA activates PARP1, and in the presence of NAD+, PARP1 ribosylates itself (auto-ribosylation), leading to PARP1 dissociation from the DNA due to the accumulated negative charge of the ribosyl polymer. In the presence of some inhibitors, however, PARP remains bound to the DNA, a phenomenon termed trapping.
The BPS PARPtrap assay kit for PARP1 (BPS Catalog #80584) was used. A series of dilutions of the compounds were prepared with 10% DMSO in water. The final concentration of DMSO was 1% in all reactions. The enzymatic reactions were conducted in duplicates at room temperature in a 96-well plate. The 45 μl reaction mixtures in PARPtrap buffer 1 containing PARP1 fluorescent labelled oligonucleotide duplex, PARP enzyme and the test compound were incubated at room temperature for 10 min. After pre-incubation, the enzymatic reaction was initiated by adding 5 μl of 10×NAD+ solution. The reaction was incubated for 45-60 min at room temperature.
Fluorescence polarization was measured at an excitation of 470 nm and an emission of 518 nm using a Tecan Infinite M1000 microplate reader. The blank value was subtracted from all other values. Fluorescence polarization was analyzed by Tecan Magellan 6 software and wells containing DNA were used as references. The fluorescence polarization data were then evaluated using GraphPad Prism software. The fluorescence polarization in absence of the compound in each data set was defined as 0% activity (FPo), while the fluorescence polarization in the absence of both NAD+ and the compound was defined as 100% activity (FPt). The percent activity in the presence of the compound was calculated according to the equation % activity=[FP−FPo]/[(FPt−FPo)]×100, where FP=the fluorescence polarization in the presence of the compound.
The values of % activity versus a series of compound concentrations were then plotted using non-linear regression analysis of a sigmoidal dose-response curve generated with the equation Y=B+(T−B)/1+10^((LogEC50−X)×Hill Slope), where Y=percent activity, B=minimum percent activity, T=maximum percent activity, X=logarithm of compound and Hill Slope=slope factor or Hill coefficient. The EC50 value was determined by the concentration causing a half-maximal percent activity. EC50 values are shown in Table C and are presented in ranges, in which “+++”<300 nM, 300 nM≤“++”<3000 nM, and “+”≥3000 nM.

T1 sequence (P09874 whole entry): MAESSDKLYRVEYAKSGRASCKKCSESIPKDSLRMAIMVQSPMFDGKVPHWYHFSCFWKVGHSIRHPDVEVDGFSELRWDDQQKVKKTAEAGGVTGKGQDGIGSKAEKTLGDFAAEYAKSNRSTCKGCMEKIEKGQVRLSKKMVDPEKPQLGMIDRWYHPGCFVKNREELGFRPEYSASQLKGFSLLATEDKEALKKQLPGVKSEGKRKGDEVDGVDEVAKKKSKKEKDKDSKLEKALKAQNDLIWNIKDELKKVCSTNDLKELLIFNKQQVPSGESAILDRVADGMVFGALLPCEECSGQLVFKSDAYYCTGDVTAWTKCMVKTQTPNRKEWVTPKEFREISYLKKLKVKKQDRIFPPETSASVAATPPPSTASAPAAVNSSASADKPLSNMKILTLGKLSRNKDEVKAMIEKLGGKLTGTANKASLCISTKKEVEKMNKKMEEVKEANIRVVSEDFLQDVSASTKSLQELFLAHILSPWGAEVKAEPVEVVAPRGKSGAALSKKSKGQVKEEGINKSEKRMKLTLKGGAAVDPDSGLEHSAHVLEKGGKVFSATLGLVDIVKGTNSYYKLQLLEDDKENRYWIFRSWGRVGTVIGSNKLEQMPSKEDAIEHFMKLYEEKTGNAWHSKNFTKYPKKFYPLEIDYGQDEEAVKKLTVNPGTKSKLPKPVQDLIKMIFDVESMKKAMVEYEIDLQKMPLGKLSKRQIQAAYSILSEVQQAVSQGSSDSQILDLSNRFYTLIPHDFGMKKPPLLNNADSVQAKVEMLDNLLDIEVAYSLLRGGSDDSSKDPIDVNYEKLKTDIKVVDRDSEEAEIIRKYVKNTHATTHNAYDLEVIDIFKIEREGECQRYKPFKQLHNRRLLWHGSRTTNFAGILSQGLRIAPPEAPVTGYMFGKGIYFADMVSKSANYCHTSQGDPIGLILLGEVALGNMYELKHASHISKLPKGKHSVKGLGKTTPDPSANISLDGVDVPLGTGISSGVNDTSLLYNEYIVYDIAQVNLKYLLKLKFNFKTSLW
Sequence of recombinant human PARP2 (Q9UGN5 whole entry): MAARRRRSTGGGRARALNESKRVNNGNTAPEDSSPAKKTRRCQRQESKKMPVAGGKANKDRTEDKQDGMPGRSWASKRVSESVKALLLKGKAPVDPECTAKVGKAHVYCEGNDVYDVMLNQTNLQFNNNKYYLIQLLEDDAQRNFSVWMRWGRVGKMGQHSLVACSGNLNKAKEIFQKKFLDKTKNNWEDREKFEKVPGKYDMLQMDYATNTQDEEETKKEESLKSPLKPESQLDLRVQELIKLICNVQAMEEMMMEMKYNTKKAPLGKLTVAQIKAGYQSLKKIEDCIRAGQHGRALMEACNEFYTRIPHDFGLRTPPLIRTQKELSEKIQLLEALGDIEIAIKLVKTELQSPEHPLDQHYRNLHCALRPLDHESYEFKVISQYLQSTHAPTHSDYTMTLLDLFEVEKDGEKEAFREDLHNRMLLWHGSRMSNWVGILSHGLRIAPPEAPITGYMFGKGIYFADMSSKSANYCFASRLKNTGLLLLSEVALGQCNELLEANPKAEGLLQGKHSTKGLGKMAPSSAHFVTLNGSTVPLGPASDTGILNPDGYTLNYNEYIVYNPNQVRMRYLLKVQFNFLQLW

On to `CCn1c(=O)[nH]c2cc(CN3CCN(c4ccc(C(=O)NC)nc4C(F)(F)F)CC3)sc2c1=O` [Compound 307], for which the IC50 is less than 100 nM on PARP1 [1], more than 3000 nM at recombinant human PARP2, 300 to 3000 nM in test [2] and more than 3000 nM in test [3]. Also, the values for the inhibition at 10 µM (at recombinant human PARP2; in test [3]) were 33 to 67% and less than 33%, respectively. The same compound displayed a half-maximal effective concentration (EC50) on PARP1 [4] of 300 to 3000 nM.

Turning to `CCn1c(=O)[nH]c2cc(CN3CCN(c4ccc(C(=O)NC)nc4F)CC3)sc2c1=O` [Compound 319], the IC50 is less than 100 nM at PARP1 [1] and less than 300 nM in test [2]. Further, the inhibition at 10 µM at recombinant human PARP2 was 33 to 67%; in test [3] it was less than 33%. Besides, the concentration giving a half-maximal response (EC50) at PARP1 [4] was less than 300 nM.

As for `CCn1c(=O)[nH]c2cc(CN3CCN(c4ccc(C(=O)NC5COC5)nc4C)CC3)sc2c1=O` [Compound 323], the figures for the IC50 (at PARP1 [1]; in test [2]) were less than 100 nM and more than 3000 nM, respectively. Also, the inhibition at 10 µM was 33 to 67% at recombinant human PARP2 and less than 33% in test [3]. At PARP1 [4], the EC50 is more than 3000 nM.

`CCn1c(=O)[nH]c2cc(CN3CCN(c4ccc(C(=O)NC)nc4C)C(=O)C3)sc2c1=O` [Compound 334, 5-[4-({3-ethyl-2,4-dioxo-1H-thieno[3,2-d]pyrimidin-6-yl}methyl)-2-oxopiperazin-1-yl]-N,6-dimethylpyridine-2-carboxamide]: the IC50 at PARP1 [1] fell in the range of 100 to 3000 nM. Moreover, the concentration for a half-maximal effect (EC50) on PARP1 [4] is more than 3000 nM.

Turning to `CCn1c(=O)[nH]c2cc(CN3CCN(c4ccc(C(=O)NC)nc4C)CC3)c(Br)cc2c1=S` [Compound 504, 5-(4-((6-bromo-3-ethyl-2-oxo-4-thioxo-1,2,3,4-tetrahydroquinazolin-7-yl)methyl)piperazin-1-yl)-N,6-dimethylpicolinamide], the IC50 at PARP1 [1] is 100 to 3000 nM; at recombinant human PARP2, more than 3000 nM; in test [2] it was 300 to 3000 nM; in test [3], more than 3000 nM. Moreover, the figures for the inhibition at 10 µM (at recombinant human PARP2; in test [3]) were 33 to 67% and less than 33%, respectively.

In the case of `CCn1c(=O)[nH]c2cc(CN3CCN(c4ccc(C(=O)NC)nc4C)CC3)c(C#N)cc2c1=S` [Compound 505, 5-(4-((6-cyano-3-ethyl-2-oxo-4-thioxo-1,2,3,4-tetrahydroquinazolin-7-yl)methyl)piperazin-1-yl)-N,6-dimethylpicolinamide trifluoroacetate], the IC50 at PARP1 [1] was less than 100 nM; on recombinant human PARP2, more than 3000 nM; in test [2], 300 to 3000 nM; in test [3], more than 3000 nM. In addition, the inhibition at 10 µM at recombinant human PARP2 is 33 to 67%; in test [3], less than 33%.

Take `CCn1c(=O)[nH]c2cc(C=C3CCN(c4ccc(C(=O)NC)nc4C)CC3)ccc2c1=S` [Compound 507, 5-(4-((3-ethyl-2-oxo-4-thioxo-1,2,3,4-tetrahydroquinazolin-7-yl)methylene)piperidin-1-yl)-N,6-dimethylpicolinamide]: the IC50 is less than 100 nM at PARP1 [1], more than 3000 nM on recombinant human PARP2, more than 3000 nM in test [2] and more than 3000 nM in test [3]. Moreover, the inhibition at 10 µM on recombinant human PARP2 is 33 to 67%; in test [3] it was more than 67%.

In the case of `CCn1c(=O)[nH]c2cc(CN3CCN(c4ccc(C(N)=O)nc4C)CC3)sc2c1=O` [Compound 516, 5-(4-((3-ethyl-2,4-dioxo-1,2,3,4-tetrahydrothieno[3,2-d]pyrimidin-6-yl)methyl)piperazin-1-yl)-6-methylpicolinamide], the concentration for half-maximal inhibition (IC50) on PARP1 [1] is less than 100 nM; at recombinant human PARP2 it was more than 3000 nM; in test [2] it was more than 3000 nM; in test [3], more than 3000 nM. For the same compound, the results for the inhibition at 10 µM (on recombinant human PARP2; in test [3]) were 33 to 67% and less than 33%, respectively.

On to `CCn1c(=O)[nH]c2cc(CN3CCN4c5ccc(C(=O)NC)nc5OC[C@H]4C3)sc2c1=O` [Compound 524, (R)-3-((3-ethyl-2,4-dioxo-1,2,3,4-tetrahydrothieno[3,2-d]pyrimidin-6-yl)methyl)-N-methyl-1,2,3,4,4a,5-hexahydropyrazino[1,2-d]pyrido[2,3-b][1,4]oxazine-8-carboxamide], for which the IC50 at PARP1 [1] is less than 100 nM; at recombinant human PARP2, more than 3000 nM; in test [2], more than 3000 nM. The inhibition at 10 µM at recombinant human PARP2 was 33 to 67%; in test [3], less than 33%.

What is called IC50 is the concentration that inhibits the measured activity by half. As a reminder, the EC50 is the concentration needed to bring the measured effect to its halfway point. The low end stands for higher potency in that assay, the high end for lower potency in that assay.
